2 compounds from patent US9517244B2, “Therapeutic combinations for use in neoplasia” (University of Florida Research Foundation, Inc., priority 2011, dated 2016) can be followed below.

Like-named read-outs stand apart in the source and are kept apart here.

A word on the IC50: it is the concentration that inhibits the measured activity by half.

Test systems include AsPC1; BxPC3; HPAC; Mia-PaCa2; PANC1.
Common to all, as to test: MTT assay, pancreatic cancer cell line
Holding throughout (assay type): cell-based, human
Holding throughout (conditions): 72 h
A general note: Tetrazolium dyes change colour on reduction, which living cells bring about.

With `[NH2][Pt]([NH2])([Cl])[Cl]` [CDDP, cisplatin], the IC50 in the assay on AsPC1 (AsPC1, NSC-30049 0 μM, 1 μM dFdC, read-out: IC50 of CDDP) is 3190 ± 280 nM; in the assay with AsPC1 (AsPC1, NSC-30049 0 μM, no dFdC, read-out: IC50 of CDDP), 3490 ± 130 nM; in the assay with AsPC1 (AsPC1, NSC-30049 0.5 μM, 1 μM dFdC, read-out: IC50 of CDDP), 640 ± 80 nM; in the assay on AsPC1 (AsPC1, NSC-30049 0.5 μM, no dFdC, read-out: IC50 of CDDP) it was 2200 ± 220 nM; in the assay with AsPC1 (AsPC1, NSC-30049 1.0 μM, 1 μM dFdC, read-out: IC50 of CDDP), 110 ± 90 nM; with AsPC1 (AsPC1, NSC-30049 1.0 μM, no dFdC, read-out: IC50 of CDDP) it was 2090 ± 190 nM. Also, the IC50 with AsPC1 (AsPC1, NSC-30049 2.5 μM, 1 μM dFdC, read-out: IC50 of CDDP) was 4 ± 0.1 nM; in the assay on AsPC1 (AsPC1, NSC-30049 2.5 μM, no dFdC, read-out: IC50 of CDDP), 200 ± 10 nM; with BxPC3 (BxPC3, NSC-30049 0 μM, 0.025 μM dFdC, read-out: IC50 of CDDP), 2020 ± 350 nM; in the assay on BxPC3 (BxPC3, NSC-30049 0 μM, no dFdC, read-out: IC50 of CDDP), 1960 ± 80 nM; in the assay on BxPC3 (BxPC3, NSC-30049 0.5 μM, 0.025 μM dFdC, read-out: IC50 of CDDP), 940 ± 60 nM; with BxPC3 (BxPC3, NSC-30049 0.5 μM, no dFdC, read-out: IC50 of CDDP) it was 1530 ± 90 nM. Also, the IC50 in the assay on BxPC3 (BxPC3, NSC-30049 1.0 μM, 0.025 μM dFdC, read-out: IC50 of CDDP) amounted to 540 ± 60 nM; with BxPC3 (BxPC3, NSC-30049 1.0 μM, no dFdC, read-out: IC50 of CDDP) it was 1380 ± 40 nM; with BxPC3 (BxPC3, NSC-30049 2.5 μM, 0.025 μM dFdC, read-out: IC50 of CDDP), 40 ± 1 nM; in the assay on BxPC3 (BxPC3, NSC-30049 2.5 μM, no dFdC, read-out: IC50 of CDDP), 260 ± 70 nM; with HPAC (HPAC, NSC-30049 0 μM, 0.025 μM dFdC, read-out: IC50 of CDDP) it was 13800 ± 5510 nM; with HPAC (HPAC, NSC-30049 0 μM, no dFdC, read-out: IC50 of CDDP), 14100 ± 4340 nM. For the same compound, the IC50 with HPAC (HPAC, NSC-30049 0.5 μM, 0.025 μM dFdC, read-out: IC50 of CDDP) was found to be 20 ± 10 nM; with HPAC (HPAC, NSC-30049 0.5 μM, no dFdC, read-out: IC50 of CDDP) it was 14500 ± 2470 nM; in the assay with HPAC (HPAC, NSC-30049 1.0 μM, 0.025 μM dFdC, read-out: IC50 of CDDP), 10 ± 1 nM; in the assay with HPAC (HPAC, NSC-30049 1.0 μM, no dFdC, read-out: IC50 of CDDP), 11600 ± 1820 nM; in the assay on HPAC (HPAC, NSC-30049 2.5 μM, 0.025 μM dFdC, read-out: IC50 of CDDP), 10 ± 1 nM; in the assay with HPAC (HPAC, NSC-30049 2.5 μM, no dFdC, read-out: IC50 of CDDP), 4710 ± 1240 nM. Also, the IC50 in the assay on Mia-PaCa2 (Mia-PaCa2, NSC-30049 0 μM, 1 μM dFdC, read-out: IC50 of CDDP) was determined as 22200 ± 1150 nM; in the assay on Mia-PaCa2 (Mia-PaCa2, NSC-30049 0 μM, no dFdC, read-out: IC50 of CDDP), 22300 ± 1100 nM; in the assay on Mia-PaCa2 (Mia-PaCa2, NSC-30049 0.5 μM, 1 μM dFdC, read-out: IC50 of CDDP), 90 nM; in the assay on Mia-PaCa2 (Mia-PaCa2, NSC-30049 0.5 μM, no dFdC, read-out: IC50 of CDDP), 14300 ± 490 nM; in the assay on Mia-PaCa2 (Mia-PaCa2, NSC-30049 1.0 μM, 1 μM dFdC, read-out: IC50 of CDDP) it was 70 nM; in the assay with Mia-PaCa2 (Mia-PaCa2, NSC-30049 1.0 μM, no dFdC, read-out: IC50 of CDDP) it was 13400 ± 1330 nM. In addition, the IC50 came out at 70 nM in the assay with Mia-PaCa2 (Mia-PaCa2, NSC-30049 2.5 μM, 1 μM dFdC, read-out: IC50 of CDDP); 12200 ± 1120 nM with Mia-PaCa2 (Mia-PaCa2, NSC-30049 2.5 μM, no dFdC, read-out: IC50 of CDDP); 9870 ± 800 nM with PANC1 (PANC1, NSC-30049 0 μM, 1 μM dFdC, read-out: IC50 of CDDP); 9550 ± 940 nM in the assay on PANC1 (PANC1, NSC-30049 0 μM, no dFdC, read-out: IC50 of CDDP); 1060 ± 390 nM in the assay with PANC1 (PANC1, NSC-30049 0.5 μM, 1 μM dFdC, read-out: IC50 of CDDP); 9000 ± 30 nM in the assay on PANC1 (PANC1, NSC-30049 0.5 μM, no dFdC, read-out: IC50 of CDDP). The IC50 amounted to 1030 ± 360 nM with PANC1 (PANC1, NSC-30049 1.0 μM, 1 μM dFdC, read-out: IC50 of CDDP); 7800 ± 500 nM in the assay on PANC1 (PANC1, NSC-30049 1.0 μM, no dFdC, read-out: IC50 of CDDP); 120 ± 90 nM in the assay on PANC1 (PANC1, NSC-30049 2.5 μM, 1 μM dFdC, read-out: IC50 of CDDP); 2040 ± 410 nM with PANC1 (PANC1, NSC-30049 2.5 μM, no dFdC, read-out: IC50 of CDDP).
In the case of `Nc1ccn([C@@H]2O[C@H](CO)[C@@H](O)C2(F)F)c(=O)n1` [dFdC, gemcitabine], the IC50 with AsPC1 (Homo sapiens, AsPC1 (dFdC-resistant), single agent, read-out: IC50) worked out at 1830 ± 470 nM; with BxPC3 (Homo sapiens, BXPC-3, BxPC3 (dFdC-sensitive), single agent, read-out: IC50), 70 ± 5 nM; in the assay on HPAC (Homo sapiens, HPAC (dFdC-sensitive), single agent, read-out: IC50), 70 ± 7 nM; in the assay on Mia-PaCa2 (Homo sapiens, MIA PaCa-2, Mia-PaCa2 (dFdC-resistant), single agent, read-out: IC50), 11500 ± 2900 nM; in the assay on PANC1 (Homo sapiens, PANC-1, PANC1 (dFdC-resistant), single agent, read-out: IC50) it was 11600 ± 2930 nM.
